In brackets after ≈: the same amount, converted by molar mass.
Experiments:
Test in all cases: Agar dilution method microbicidal test
Type in all cases: cell-based
Streptococcus pyogenes = system: Streptococcus pyogenes; on Growth on agar plate: key: +: grew; −: did not grow
Experimental: (§1) As microbicidal test method for trans-p-coumaric acid, 3-hydroxypyridine, p-hydroxybenzaldehyde and vanillin, the agar dilution method was employed.
(§2) In agar dilution method, a solution in which a sample is dissolved is serially diluted several times, and each of the diluted sample solutions is mixed with agar medium to prepare plate agars having various sample concentration. Then bacteria is inoculated onto the plate agars. In cases where the sample has a microbicidal activity, the growth of the bacteria on the plates can be inhibited. The lowest concentration which can inhibit the growth of the bacteria is referred to as Minimum Inhibitory Concentration (MIC), thereby judging the degree of a microbicidal activity of the sample.
(§3) First, 400 mg of sample was dissolved in 1 mL of DMSO to prepare 400 mg/mL sample solution. Then 0.5 mL of this 400 mg/mL sample solution was diluted 2-fold to prepare 200 mg/mL sample solution. In the same manner, sample solutions of 100 mg/mL, 50.0 mg/mL, and 25.0 mg/mL were prepared. In addition, 300 mg/mL sample solution was prepared. Thereafter, 0.2 mL of these sample solutions each was mixed with 19.8 mL of BHI (Brain Heart Infusion Agar, Becton Dickinson, MD) medium, thereby preparing agar plates having the sample concentration of 4.0 mg/mL, 3.0 mg/mL, 2.0 mg/mL, 1.0 mg/mL, 0.5 mg/mL, and 0.25 mg/mL in dishes. […] Sterilized water was used for dissolving catechin, because catechin was insoluble in DMSO.
(§4) As test bacteria, 13 kinds of bacteria, i.e., Streptococcus pneumoniae, Streptococcus pyogenes, Enterococcus faecalis, Staphylococcus aureus, Escherichia coli, Salmonella sp., Yersinia enterocolitica, Vibrio parahaemolyticus, Pseudomonas aeruginosa, Bacillus cereus, Bacillus subtilis MB-32, Bacillus subtilis ATCC6633, and Candida sp., were used. These bacteria each was mixed with 2 mL of sterilized MHB^R liquid medium (Mueller Hinton Broth^R, Becton Dickinson, MD) to prepare bacterial suspension having turbidity 1 (bacterial concentration 10^8/mL). Previously, small test tubes were set into each cell of a grating and sterilized, and 1 mL of 13 bacterial suspensions were added into the small test tubes set in the grating, respectively. By using a microplanter (SAKUMA, model: MIT-P), 10 μL aliquot was collected from each test tube set in the grating and transferred to other test tube, and the transferred bacterial suspensions were diluted 100-fold (bacterial concentration 10^6/mL).
(§5) By using the microplanter, 10 μL (bacterial number […]) of this bacterial suspension was inoculated onto the plates containing the sample solution of various concentrations. The plates were incubated for 18 hours in an incubator at 37° C., and then a microbicidal activity of each compound was assessed.

Pseudomonas aeruginosa = system: Pseudomonas aeruginosa; further: key: +: grew; −: did not grow
Experimental: as §1, §2, §3, §4, §5

Candida sp. = system: Candida sp. On Growth on agar plate: key: +: grew; −: did not grow.
Experimental: as §1, §2, §3, §4, §5

Bacillus subtilis MB-32 = system: Bacillus subtilis MB-32; further: key: +: grew; −: did not grow
Experimental: as §1, §2, §3, §4, §5

Escherichia coli = system: Escherichia coli; further: key: +: grew; −: did not grow
Experimental: as §1, §2, §3, §4, §5

Salmonella sp. = system: Salmonella sp. Further: key: +: grew; −: did not grow.
Experimental: as §1, §2, §3, §4, §5

Vibrio parahaemolyticus = system: Vibrio parahaemolyticus; on Growth on agar plate: key: +: grew; −: did not grow
Experimental: as §1, §2, §3, §4, §5

[1] = system: Bacillus subtilis ATCC6633; on Growth on agar plate: key: +: grew; −: did not grow
Experimental: as §1, §2, §3, §4, §5

Yersinia enterocolitica = system: Yersinia enterocolitica; on Growth on agar plate: key: +: grew; −: did not grow
Experimental: as §1, §2, §3, §4, §5

Streptococcus pneumoniae = system: Streptococcus pneumoniae; on Growth on agar plate: key: +: grew; −: did not grow
Experimental: as §1, §2, §3, §4, §5

Staphylococcus aureus = system: Staphylococcus aureus; on Growth on agar plate: key: +: grew; −: did not grow
Experimental: as §1, §2, §3, §4, §5

Bacillus cereus = system: Bacillus cereus; on Growth on agar plate: key: +: grew; −: did not grow
Experimental: as §1, §2, §3, §4, §5

Enterococcus faecalis = system: Enterococcus faecalis; further: key: +: grew; −: did not grow
Experimental: as §1, §2, §3, §4, §5

[2] = BHI agar, 37° C., 18 hours, read-out: MIC

O=C(O)/C=C/c1ccc(O)cc1 [trans-p-Coumaric Acid, trans-p-coumaric acid]
activity (in words) (Streptococcus pyogenes): had an activity
Growth on agar plate (Streptococcus pyogenes; 0.25 mg/mL): +
Growth on agar plate (Streptococcus pyogenes; 0.5 mg/mL): +
Growth on agar plate (Streptococcus pyogenes; 1.0 mg/mL): +
Growth on agar plate (Streptococcus pyogenes; 2.0 mg/mL): +
Growth on agar plate (Streptococcus pyogenes; 3.0 mg/mL): −
Growth on agar plate (Streptococcus pyogenes; 4.0 mg/mL): −
MIC (Streptococcus pyogenes; [2]): 3000 µg/mL (≈ 18.3 mM)
Growth on agar plate (Pseudomonas aeruginosa; 0.25 mg/mL): +
Growth on agar plate (Pseudomonas aeruginosa; 0.5 mg/mL): +
Growth on agar plate (Pseudomonas aeruginosa; 1.0 mg/mL): +
Growth on agar plate (Pseudomonas aeruginosa; 2.0 mg/mL): +
Growth on agar plate (Pseudomonas aeruginosa; 3.0 mg/mL): +
Growth on agar plate (Pseudomonas aeruginosa; 4.0 mg/mL): +
activity (in words) (Candida sp.): had an activity
Growth on agar plate (Candida sp.; 0.25 mg/mL): +
Growth on agar plate (Candida sp.; 0.5 mg/mL): +
Growth on agar plate (Candida sp.; 1.0 mg/mL): +
Growth on agar plate (Candida sp.; 2.0 mg/mL): +
Growth on agar plate (Candida sp.; 3.0 mg/mL): −
Growth on agar plate (Candida sp.; 4.0 mg/mL): −
MIC (Candida sp.; [2]): 3000 µg/mL (≈ 18.3 mM)
Growth on agar plate (Bacillus subtilis MB-32; 0.25 mg/mL): +
Growth on agar plate (Bacillus subtilis MB-32; 0.5 mg/mL): +
Growth on agar plate (Bacillus subtilis MB-32; 1.0 mg/mL): +
Growth on agar plate (Bacillus subtilis MB-32; 2.0 mg/mL): +
Growth on agar plate (Bacillus subtilis MB-32; 3.0 mg/mL): +
Growth on agar plate (Bacillus subtilis MB-32; 4.0 mg/mL): +
Growth on agar plate (Escherichia coli; 0.25 mg/mL): +
Growth on agar plate (Escherichia coli; 0.5 mg/mL): +
Growth on agar plate (Escherichia coli; 1.0 mg/mL): +
Growth on agar plate (Escherichia coli; 2.0 mg/mL): +
Growth on agar plate (Escherichia coli; 3.0 mg/mL): +
Growth on agar plate (Escherichia coli; 4.0 mg/mL): +
Growth on agar plate (Salmonella sp.; 0.25 mg/mL): +
Growth on agar plate (Salmonella sp.; 0.5 mg/mL): +
Growth on agar plate (Salmonella sp.; 1.0 mg/mL): +
Growth on agar plate (Salmonella sp.; 2.0 mg/mL): +
Growth on agar plate (Salmonella sp.; 3.0 mg/mL): +
Growth on agar plate (Salmonella sp.; 4.0 mg/mL): +
activity (in words) (Vibrio parahaemolyticus): had an activity
Growth on agar plate (Vibrio parahaemolyticus; 0.25 mg/mL): +
Growth on agar plate (Vibrio parahaemolyticus; 0.5 mg/mL): +
Growth on agar plate (Vibrio parahaemolyticus; 1.0 mg/mL): +
Growth on agar plate (Vibrio parahaemolyticus; 2.0 mg/mL): +
Growth on agar plate (Vibrio parahaemolyticus; 3.0 mg/mL): −
Growth on agar plate (Vibrio parahaemolyticus; 4.0 mg/mL): −
MIC (Vibrio parahaemolyticus; [2]): 3000 µg/mL (≈ 18.3 mM)
MIC ([1]; ATCC6633, Bacillus subtilis ATCC 6633, BHI agar, 37° C., 18 hours, read-out: MIC): 3000 µg/mL (≈ 18.3 mM)
activity (in words) ([1]; Bacillus subtilis ATCC6633): had an activity
Growth on agar plate ([1]; Bacillus subtilis ATCC 6633, 0.25 mg/mL): +
Growth on agar plate ([1]; Bacillus subtilis ATCC 6633, 0.5 mg/mL): +
Growth on agar plate ([1]; Bacillus subtilis ATCC 6633, 1.0 mg/mL): +
Growth on agar plate ([1]; Bacillus subtilis ATCC 6633, 2.0 mg/mL): +
Growth on agar plate ([1]; Bacillus subtilis ATCC 6633, 3.0 mg/mL): −
Growth on agar plate ([1]; Bacillus subtilis ATCC 6633, 4.0 mg/mL): −
activity (in words) (Yersinia enterocolitica): had an activity
Growth on agar plate (Yersinia enterocolitica; 0.25 mg/mL): +
Growth on agar plate (Yersinia enterocolitica; 0.5 mg/mL): +
Growth on agar plate (Yersinia enterocolitica; 1.0 mg/mL): +
Growth on agar plate (Yersinia enterocolitica; 2.0 mg/mL): +
Growth on agar plate (Yersinia enterocolitica; 3.0 mg/mL): +
Growth on agar plate (Yersinia enterocolitica; 4.0 mg/mL): −
MIC (Yersinia enterocolitica; [2]): 4000 µg/mL (≈ 24.4 mM)
activity (in words) (Streptococcus pneumoniae): had an activity
Growth on agar plate (Streptococcus pneumoniae; 0.25 mg/mL): +
Growth on agar plate (Streptococcus pneumoniae; 0.5 mg/mL): +
Growth on agar plate (Streptococcus pneumoniae; 1.0 mg/mL): +
Growth on agar plate (Streptococcus pneumoniae; 2.0 mg/mL): −
Growth on agar plate (Streptococcus pneumoniae; 3.0 mg/mL): −
Growth on agar plate (Streptococcus pneumoniae; 4.0 mg/mL): −
MIC (Streptococcus pneumoniae; [2]): 2000 µg/mL (≈ 12.2 mM)
activity (in words) (Staphylococcus aureus): had an activity
Growth on agar plate (Staphylococcus aureus; 0.25 mg/mL): +
Growth on agar plate (Staphylococcus aureus; 0.5 mg/mL): +
Growth on agar plate (Staphylococcus aureus; 1.0 mg/mL): +
Growth on agar plate (Staphylococcus aureus; 2.0 mg/mL): +
Growth on agar plate (Staphylococcus aureus; 3.0 mg/mL): +
Growth on agar plate (Staphylococcus aureus; 4.0 mg/mL): −
MIC (Staphylococcus aureus; [2]): 4000 µg/mL (≈ 24.4 mM)
activity (in words) (Bacillus cereus): had an activity
Growth on agar plate (Bacillus cereus; 0.25 mg/mL): +
Growth on agar plate (Bacillus cereus; 0.5 mg/mL): +
Growth on agar plate (Bacillus cereus; 1.0 mg/mL): +
Growth on agar plate (Bacillus cereus; 2.0 mg/mL): +
Growth on agar plate (Bacillus cereus; 3.0 mg/mL): −
Growth on agar plate (Bacillus cereus; 4.0 mg/mL): −
MIC (Bacillus cereus; [2]): 3000 µg/mL (≈ 18.3 mM)
Growth on agar plate (Enterococcus faecalis; 0.25 mg/mL): +
Growth on agar plate (Enterococcus faecalis; 0.5 mg/mL): +
Growth on agar plate (Enterococcus faecalis; 1.0 mg/mL): +
Growth on agar plate (Enterococcus faecalis; 2.0 mg/mL): +
Growth on agar plate (Enterococcus faecalis; 3.0 mg/mL): +
Growth on agar plate (Enterococcus faecalis; 4.0 mg/mL): +
